The values that follow come from PubChem BioAssay (NCI).

Values joined by “and” are separate entries in the source; they are usually repeats but may differ in a detail not shown here. Identical values can stand only once.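 Briefly, cells in 96-well plates were exposed to five compound concentrations for 48 h, and endpoints were estimated by linear interpolation. GI50 marks 50% less growth. TGI denotes the concentration required for complete inhibition of growth.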 Bounds are passed on as bounds.

The subject of the first test is M14 melanoma. Briefly: growth of human tumour cells (NCI), 48 h.
Turning to `C=C(C)[C@@H]1CC[C@]2(COCCCN)CC[C@]3(C)[C@H](CC[C@@H]4[C@@](C)(CCCNCCCN)[C@H](C(=C)C)CC[C@]43C)[C@@H]12`, the GI50 is 1.9 µM and the TGI worked out at 3.62 µM.
Compound `O=NNc1ccc2ccccc2n1` registered a TGI of more than 100 µM.
The same measure, in the same setting: the same measure for `CC(C)(C)c1cc([N+](=O)[O-])cc([N+](=O)[O-])c1O`: more than 10 µM.
Turning to `O=C1NC(=S)S/C1=C/c1ccc2c(c1)OCO2`, the GI50 is more than 100 µM and the TGI is more than 100 µM.
Take `O=C(O)CCCc1ccc2ccc3ccccc3c2c1`: the TGI is more than 100 µM.
As for `CC(=O)OC1OC([C@H]2c3cccc(O)c3C(=O)c3c(O)cc(C)cc32)C(O)C(O)C1O` (stereo partly drawn), the GI50 is less than 0.0214 µM and the TGI was found to be 3.85 µM.
In the case of `N/N=C\c1c2ccccc2c(=O)n2c1oc1ccccc12`, the GI50 is 27.3 µM and the TGI stood at 83.6 µM.
Compound `CSC(SC)(C(=O)O)c1cc(-c2c(Cl)cccc2Cl)no1` yielded a TGI of more than 100 µM.

A further test deals with HT29 colon. As to the kind of experiment: growth of human tumour cells (NCI), 48 h.
In the case of `C[C@]12CCc3sc(Nc4ccc(OC(F)(F)F)cc4)nc3C1=CC[C@@H]1[C@@H]2CC[C@]2(C)C(=O)CC[C@@H]12`, the GI50 is 2.39 µM and the TGI turned out to be 10.9 µM.
For the compound `CCN1C(=O)c2ccc3c4c(ccc(c24)C1=O)C(=O)N(CCCNCc1ccccc1OC)C3=O`, the GI50 was 0.404 µM and the TGI is 3.67 µM.
For `O=C(/C=C/c1ccccc1)Nc1ncc(Cc2ccccc2Cl)s1`, in that order: 0.331 µM and more than 100 µM.
For `CN(c1ccc(NC(=O)Nc2c(Cl)cccc2Cl)cc1)c1ccnc(Nc2cccc(CS(C)(=O)=O)c2)n1`, in that order: 2.16 µM and 7.81 µM.
Consider `CCCCCCCCCCCCCCCCCCOC[C@H](COP(=O)(O)O[C@H]1[C@H](O)[C@@H](O)[C@H](O)C[C@H]1O)OC`, for which the GI50 was 58.7 µM and 13.1 µM; the TGI is > 100 µM and 26.2 µM.
Regarding `CN(C)C/C=C/C(=O)Nc1ccc(C(=O)N[C@@]2(C)CCC[C@@H](Nc3ncc(Cl)c(-c4c[nH]c5ccccc45)n3)C2)nc1`, the GI50 was less than 0.01 µM and the TGI amounted to 1.09 µM.
Compound `COCCOC(=O)C1=C(O)c2ccccc2S(=O)(=O)N1C` returned a TGI of more than 100 µM.
`CN(C)CCOc1ccc([N+](=O)[O-])c2cccnc12` had a TGI of more than 100 µM.
The same measure, in the same setting: the same measure for `O=NNc1ccc2ccccc2n1`: more than 100 µM; for `CC(C)(C)c1cc([N+](=O)[O-])cc([N+](=O)[O-])c1O`: more than 10 µM.
`COc1ccc2c(c1)C(=O)/C(=C/c1cccc(OCC(=O)c3ccccc3)c1)O2`: the GI50 was 3.1 µM and the TGI was 7.56 µM.
For `O=C1NC(=S)S/C1=C/c1ccc2c(c1)OCO2`, in that order: more than 100 µM and more than 100 µM.
On to `O=C(O)CCCc1ccc2ccc3ccccc3c2c1`, for which the TGI was more than 100 µM.
As for `CC(=O)OC1OC([C@H]2c3cccc(O)c3C(=O)c3c(O)cc(C)cc32)C(O)C(O)C1O` (stereo partly drawn), the GI50 is 0.116 µM and the TGI is more than 100 µM.
For `N/N=C\c1c2ccccc2c(=O)n2c1oc1ccccc12`, in that order: 22.1 µM and more than 100 µM.
Take `CSC(SC)(C(=O)O)c1cc(-c2c(Cl)cccc2Cl)no1`: the TGI is more than 100 µM.

A further test has as its system MDA-MB-231 breast. As to the kind of experiment: growth of human tumour cells (NCI), 48 h.
On to `C[C@]12CCc3sc(Nc4ccc(OC(F)(F)F)cc4)nc3C1=CC[C@@H]1[C@@H]2CC[C@]2(C)C(=O)CC[C@@H]12`, for which the GI50 was 2.42 µM and the TGI was 7.84 µM.
For `CCN1C(=O)c2ccc3c4c(ccc(c24)C1=O)C(=O)N(CCCNCc1ccccc1OC)C3=O`, in that order: 0.791 µM and 9.31 µM.
For `O=C(/C=C/c1ccccc1)Nc1ncc(Cc2ccccc2Cl)s1`, in that order: 0.668 µM and more than 100 µM.
For `CN(c1ccc(NC(=O)Nc2c(Cl)cccc2Cl)cc1)c1ccnc(Nc2cccc(CS(C)(=O)=O)c2)n1`, in that order: 4.49 µM and 16.9 µM.
As for `CCCCCCCCCCCCCCCCCCOC[C@H](COP(=O)(O)O[C@H]1[C@H](O)[C@@H](O)[C@H](O)C[C@H]1O)OC`, the GI50 is > 100 µM and 13.6 µM; the TGI is > 100 µM and 27.6 µM.
For `CN(C)C/C=C/C(=O)Nc1ccc(C(=O)N[C@@]2(C)CCC[C@@H](Nc3ncc(Cl)c(-c4c[nH]c5ccccc45)n3)C2)nc1`, the GI50 was 0.0145 µM and the TGI worked out at 1.22 µM.
On to `COCCOC(=O)C1=C(O)c2ccccc2S(=O)(=O)N1C`, for which the TGI was more than 100 µM.
Still for that read-out and setting: next, `CN(C)CCOc1ccc([N+](=O)[O-])c2cccnc12`: more than 100 µM.
As for `C=C(C)[C@@H]1CC[C@]2(COCCCN)CC[C@]3(C)[C@H](CC[C@@H]4[C@@](C)(CCCNCCCN)[C@H](C(=C)C)CC[C@]43C)[C@@H]12`, the GI50 is 1.8 µM and the TGI is 3.29 µM.
Compound `O=NNc1ccc2ccccc2n1` showed a TGI of more than 100 µM.
On the same count and under the same terms, next, `CC(C)(C)c1cc([N+](=O)[O-])cc([N+](=O)[O-])c1O`: more than 10 µM.
With `COc1ccc2c(c1)C(=O)/C(=C/c1cccc(OCC(=O)c3ccccc3)c1)O2`, the GI50 was 7.62 µM and the TGI is 23.2 µM.
For the compound `O=C1NC(=S)S/C1=C/c1ccc2c(c1)OCO2`, the GI50 is more than 100 µM and the TGI was more than 100 µM.
Regarding `O=C(O)CCCc1ccc2ccc3ccccc3c2c1`, the TGI was more than 100 µM.
Regarding `CC(=O)OC1OC([C@H]2c3cccc(O)c3C(=O)c3c(O)cc(C)cc32)C(O)C(O)C1O` (stereo partly drawn), the GI50 is 0.0188 µM and the TGI was found to be 0.0671 µM.
For `N/N=C\c1c2ccccc2c(=O)n2c1oc1ccccc12`, in that order: 10.8 µM and 25 µM.
As to `CSC(SC)(C(=O)O)c1cc(-c2c(Cl)cccc2Cl)no1`, the TGI is more than 100 µM.

A further test deals with SK-MEL-5 melanoma. Briefly: growth of human tumour cells (NCI), 48 h.
In the case of `C[C@]12CCc3sc(Nc4ccc(OC(F)(F)F)cc4)nc3C1=CC[C@@H]1[C@@H]2CC[C@]2(C)C(=O)CC[C@@H]12`, the GI50 is 2.62 µM and the TGI came to 7.41 µM.
